Biological target: T1, Nox2 (Homo sapiens, UniProt P04839)
T1 construct: endogenous in cells
T1 sequence (P04839 2-570 limits assumed): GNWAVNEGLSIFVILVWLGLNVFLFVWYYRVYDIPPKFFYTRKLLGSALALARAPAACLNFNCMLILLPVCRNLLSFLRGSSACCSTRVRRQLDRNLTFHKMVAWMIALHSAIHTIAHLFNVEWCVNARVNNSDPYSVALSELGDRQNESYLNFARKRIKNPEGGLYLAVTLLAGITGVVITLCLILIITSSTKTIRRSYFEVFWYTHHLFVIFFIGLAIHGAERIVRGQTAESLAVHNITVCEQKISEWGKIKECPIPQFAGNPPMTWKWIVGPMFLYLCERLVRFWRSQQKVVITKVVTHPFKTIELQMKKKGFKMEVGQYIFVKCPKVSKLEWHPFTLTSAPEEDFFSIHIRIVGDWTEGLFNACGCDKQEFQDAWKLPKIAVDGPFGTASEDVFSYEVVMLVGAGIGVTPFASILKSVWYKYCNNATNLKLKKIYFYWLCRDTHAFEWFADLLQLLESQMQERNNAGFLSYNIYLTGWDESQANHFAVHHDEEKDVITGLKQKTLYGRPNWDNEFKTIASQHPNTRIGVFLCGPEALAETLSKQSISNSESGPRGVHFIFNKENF
T1 sequence (P13498 2-195 partner limits assumed): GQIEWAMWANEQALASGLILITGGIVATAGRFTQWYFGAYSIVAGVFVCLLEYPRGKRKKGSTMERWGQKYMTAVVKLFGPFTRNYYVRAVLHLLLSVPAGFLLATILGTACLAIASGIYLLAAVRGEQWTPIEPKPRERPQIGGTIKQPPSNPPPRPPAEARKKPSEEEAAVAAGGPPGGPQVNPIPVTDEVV
Experiment: CBA probe assay of H2O2 production by PMA-activated dHL60 cells
Type: cell-based
Details: PMA (1 µM)-activated dHL60 cells, 30 min preincubation with inhibitor; read-out: IC50, inhibition of H2O2 production, CBA Assay
Method: Human promyelocytic leukemia HL60 cells (Sigma-Aldrich) were grown in RPMI 1640 medium (Gibco, 11875-093, Billings, MT, USA) supplemented with 10% FBS (Omega Scientific (Tarzana, CA, USA)), 100 units/mL penicillin, and 100 µg/mL streptomycin, and were incubated at 37 °C and 5% carbon dioxide (CO2). For differentiation to neutrophil-like cells, HL60 cells were pelleted and resuspended in fresh media containing 1 µM of all trans-retinoic acid and incubated for four to five days. Nox2 activation was achieved by treating differentiated HL60 (dHL60) cells with 1 µM PMA [24]. Human leukemia monocytic cells, THP-1, were grown in RPMI 1640 medium + GlutaMAX^TM (Gibco, 61870-036) and supplemented with 10% FBS, 10 mM HEPES, and 1 mM sodium pyruvate and incubated at 37 °C in 5% CO2 environment. To induce differentiation into macrophages, THP-1 cells were treated with PMA (100 ng/mL) for 48 h. To test the efficacy of Nox2 inhibitors, treatment was performed with or without the inhibitor, along with PMA [35].
Plate reader-based analyses of the production of O2^•− and H2O2 by PMA-activated dHL60 cells were performed according to a published protocol with minor modifications. Briefly, for the treatment of dHL60 cells with different concentrations of the compounds, 0.5 mL deep-well 96-well plates were used to dispense and store aliquots of their 10 mM DMSO solutions. Using a Multidrop™ PicoIT dispenser (Thermo Scientific), different volumes of the solutions of candidate Nox inhibitors (10 or 50 mM in DMSO) were injected into the bottom of 0.5 mL V-bottom 96-well plates; then, they were sealed with aluminum foil (VWR, Batavia, IL, USA) using a semiautomatic thermal sealer (BT LabSystems, St. Louis, MO, USA) and stored at −20 °C to reduce freeze-thawing the solutions. The plates with inhibitors were allowed to come to room temperature before the addition of the cell suspensions. dHL60 cells were pelleted and resuspended in HBSS (Invitrogen, Waltham, MA, USA) supplemented with 25 mM HEPES (pH 7.4) and 100 µM DTPA to a cell density of 2 × 10^5 cells/mL. dHL60 cells were added to the V-bottom plates at a volume of 210 µL/well. Next, cells were incubated with inhibitors for 30 min at 37 °C in a CO2-free incubator under ambient oxygen and then transferred to black, clear-bottom 96-well plates (200 µL/well) after incubation. Freshly prepared PMA plus probe solutions in HBSS (5× concentrated, 50 µL/well) included PMA (5 µM) with CBA (500 µM) or with Amplex Red (250 µM) plus HRP (0.5 U/mL) for H2O2 detection, or with HE (50 µM) plus DNA (0.5 mg/mL) for O2^•− detection. Once probes + PMA were added, plates were sealed with sealing film and immediately placed in the pre-warmed plate readers (37 °C). Fluorescence intensities were monitored kinetically from the bottom of the plates every 1.3 min for a period of 2 h using Beckman Coulter (Brea, CA, USA) DTX880 and BMG Labtech (Ortenberg, Germany) FLUOstar Omega plate readers. DMSO alone and DPI (10 µM) were used as negative and positive controls, respectively. […] The IC50 values were determined using at least five independent measurements, each consisting of technical quadruplicates per concentration.

## CN(C)CCCn1c(SCCc2c[nH]c3ccccc23)nc2ccc(F)cc2c1=O [TG15-132]
  IC50: 4.3 ± 1.3 µM

From publication PMC10525516, “Novel NADPH Oxidase-2 Inhibitors as Potential Anti-Inflammatory and Neuroprotective Agents” (Antioxidants, 2023)
